Results reported in patent US11161888B2, “Method for regulating targeting of Cyclin Y (CCNY) protein to synapses” (KOREA INSTITUTE OF SCIENCE AND TECHNOLOGY, priority 2018, dated 2021).
“Also recorded” adds a separate entry of the source.

Experiments:
CCNY = assay: Acyl-biotinyl exchange (ABE) assay of CCNY palmitoylation in HEK293T cells; type: cell-based; details: 4 hours prior to ABE assay, HEK293T cells (FIG. 3B)
Method: (§1) All images are single-plane images. […] The scale bars are 5 (B and C) show the results of an acyl-biotinyl exchange (ABE) assay. CCNY-WT-EGFP or CCNY-Mut(C7, 8S)-EGFP were overexpressed in HEK293T cells, and the cells were subsequently treated with a palmitoylation blocker, 2-bromopalmitate (2-BP, 30 μM or 100 μM), for 4 hours prior to the ABE assay.
(§2) The ABE assay was performed as previously described (Wan et al., 2007) with minor modifications. Briefly, HEK293T cells were transfected with CCNY-WT-EGFP, CCNY-Mut(C7,8S)-EGFP, or PSD-95-WT-EGFP. PSD-95-WT-EGFP was transfected with or without DHHC2-HA. Twenty four hours after transfection, the cells were lysed in lysis buffer (150 mM NaCl, 50 mM Tris, 5 mM EDTA, protease inhibitor cocktail, 1 mM PMSF, pH 7.4) with 1.7% Triton X-100 and 10 mM N-ethylmaleimide (NEM) for 1 hour at 4° C. The cell lysates were centrifuged at 250 g for 5 minutes at 4° C., and the resultant supernatants were applied to the chloroform-methanol (CM) precipitation methodology. […] The eluted samples in loading buffer (50 mM Tris-HCl, pH 6.8, 5% β-mercaptoethanol, 2% SDS, 0.01% bromophenol blue) were then boiled for 10 minutes at 95° C., applied to SDS-PAGE, and analyzed by immunoreactions with anti-CCNY (Proteintech Group), anti-PSD-95 (Thermo Scientific) and anti-GFP (Roche). […]

PSD-95 = assay: Acyl-biotinyl exchange (ABE) assay of PSD-95 palmitoylation (positive control) in HEK293T cells; type: cell-based; details: in the presence of 2-bromopalmitate, HEK293T cells (FIG. 3C)
Method: as §1, §2

[1] = test system: hippocampal neurons overexpressing CCNY-WT-EGFP; assay: Confocal imaging of CCNY-WT-EGFP membrane association in neurons treated with palmitoylation blocker; type: cell-based, rat; details: 2-bromopalmitate 100 μM, 4 hours, hippocampal neurons (FIG. 1D)
Method: Specifically, (A) is a confocal single-plane image of hippocampal neurons overexpressing EGFP-tagged CCNY-WT. […] The scale bars are 20 μm (top) and 5 μm (bottom). […] The scale bar is 20 μm.
HEK 293T cells were grown in DMEM (Gibco) supplemented with 10% fetal bovine serum. Hippocampal neuronal cultures were prepared from E18 Sprague-Dawley (SD) rat embryos. The hippocampal neurons were grown on poly-D-lysine ([…]; Sigma)-coated 18 mm glass coverslips and maintained for 10 to 21 days in vitro (DIV) in 12-well plates containing B27 and Glutamax-supplemented Neurobasal medium (Gibco) at 37° C. in an incubator equilibrated with 5% CO2 (Cho et al., 2015). The culture contains glial cells that were grown up to 70% to 80% confluency, where further growth was inhibited by treatment of 5-fluoro-2′-deoxyuridine (FUdR) ([…]; Sigma).
Neurons were transfected at 10 to 15 DIV using Lipofectamine 2000 (Invitrogen) for 1 to 6 days, and then experiments were performed at 14 to 17 DIV. All experiments handling animals and their embryos were performed in accordance with the guidelines and regulations of the Korea Institute of Science and Technology (KIST). All experimental protocols were approved by the KIST Institutional Animal Care and Use Committee (IACUC; approval number 2018-048). […]

CCCCCCCCCCCCCCC(Br)C(=O)O (stereo not shown) [2-bromopalmitate]
palmitoylation of CCNY-WT-EGFP (ABE assay) (CCNY; 2-bromopalmitate 30 μM): no palmitoylation was detected; also recorded: blocked | palmitoylation of CCNY-WT-EGFP (ABE assay) (CCNY; 2-bromopalmitate 100 μM): no palmitoylation was detected; also recorded: blocked | palmitoylation of PSD-95 (ABE assay) (PSD-95): inhibited | membrane-associated localization of CCNY-WT-EGFP on the neuronal cell surface [1]: altered
